The source of these data is PubChem BioAssay (NCI).

Some test systems named below: SK-MEL-28 melanoma; SF-539 CNS; SF-268 CNS; HCT-15 colon; SW-620 colon; NCI-H23 lung; HCC-2998 colon; OVCAR-3 ovarian; UACC-62 melanoma; SK-OV-3 ovarian; HOP-92 NSCLC; OVCAR-4 ovarian; M14 melanoma; HT29 colon; EKVX NSCLC; MALME-3M melanoma; CAKI-1 renal; NCI/ADR-RES ovarian; NCI-H226 lung.
What all share (assay): NCI anticancer screen, dose series, 48 h

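Compound exposure: 48 hours, 5 concentrations, 96-well plates. TGI marks complete inhibition of growth.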

`O=C1CSC(c2c[nH]c3ccccc23)N1c1cccc([N+](=O)[O-])c1` (stereo not given): the TGI in the assay on SK-MEL-28 melanoma, in the assay with SF-539 CNS, in the assay with SF-268 CNS, with HCT-15 colon, with SW-620 colon and in the assay with NCI-H23 lung was over 100 µM throughout. Also, the TGI with HCC-2998 colon, in the assay with OVCAR-3 ovarian, in the assay with UACC-62 melanoma, in the assay with SK-OV-3 ovarian, in the assay on HOP-92 NSCLC and in the assay on OVCAR-4 ovarian was over 100 µM each time. For the same compound, the TGI with M14 melanoma, in the assay with HT29 colon and with EKVX NSCLC was over 100 µM throughout.
Take `CCOc1ccc(NC(=O)/C(Cc2nc3ccccc3[nH]c2=O)=N\O)cc1`: the TGI with SK-MEL-28 melanoma, in the assay with SF-539 CNS, with MALME-3M melanoma, in the assay on SF-268 CNS, with HCT-15 colon and in the assay with SW-620 colon was over 100 µM throughout. Moreover, the TGI in the assay on NCI-H23 lung, in the assay with HCC-2998 colon, in the assay on OVCAR-3 ovarian, with UACC-62 melanoma, in the assay with SK-OV-3 ovarian and in the assay on HOP-92 NSCLC was over 100 µM each time. In addition, the TGI in the assay on OVCAR-4 ovarian, with M14 melanoma, with CAKI-1 renal and in the assay with EKVX NSCLC was over 100 µM in each case.
As for `Nc1cc(N2CCOCC2)nc(=O)n1-c1ccccc1`, the TGI with SK-MEL-28 melanoma, with SF-539 CNS, with HCT-15 colon, in the assay with NCI/ADR-RES ovarian, in the assay on SW-620 colon and with NCI-H23 lung was over 100 µM in each case. Moreover, the TGI with HCC-2998 colon, in the assay on OVCAR-3 ovarian, in the assay with UACC-62 melanoma, with SK-OV-3 ovarian, with HOP-92 NSCLC and with M14 melanoma was over 100 µM each time. Further, the TGI in the assay with CAKI-1 renal, with NCI-H226 lung, in the assay on HT29 colon and with EKVX NSCLC was over 100 µM each time.
Consider `CCOc1ccccc1NC(=O)CSc1nnc(Cc2ccccc2)o1`, for which the TGI in the assay on SK-MEL-28 melanoma was over 100 µM; in the assay on SF-539 CNS it was 53.5 µM; with MALME-3M melanoma it was 33.8 µM; with SF-268 CNS, 64.4 µM; with HCT-15 colon, 35.1 µM; in the assay on SW-620 colon, 37.2 µM. Also, the TGI in the assay with NCI-H23 lung was 52.1 µM; with HCC-2998 colon, over 100 µM; in the assay with OVCAR-3 ovarian, 32.7 µM; with UACC-62 melanoma it was 52.6 µM; in the assay with SK-OV-3 ovarian, over 100 µM; in the assay on OVCAR-4 ovarian, 63.5 µM. The TGI with M14 melanoma is 66.5 µM; in the assay with CAKI-1 renal, 37.6 µM; in the assay with NCI-H226 lung, 57.5 µM; in the assay on HT29 colon, over 100 µM.
Take `CC(=O)CC(=O)ON(C)C(C)=O`: the TGI in the assay with SK-MEL-28 melanoma, in the assay with SF-539 CNS, in the assay with MALME-3M melanoma, in the assay with SF-268 CNS, in the assay on SW-620 colon and in the assay with NCI-H23 lung was over 100 µM throughout. Also, the TGI with HCC-2998 colon was over 100 µM; in the assay on OVCAR-3 ovarian, over 100 µM; with UACC-62 melanoma it was over 100 µM; in the assay on SK-OV-3 ovarian, over 100 µM; in the assay on OVCAR-4 ovarian, 89.1 µM; in the assay on M14 melanoma, over 100 µM. The TGI in the assay with CAKI-1 renal, in the assay with NCI-H226 lung and in the assay on HT29 colon was over 100 µM in each case.
With `Cc1cc(N(CCC#N)CCC#N)ccc1/C=C(\NC(=O)/C=C/c1ccccc1)NC(=O)Nc1ccccc1C`, the TGI with SK-MEL-28 melanoma, in the assay with SF-539 CNS, in the assay with MALME-3M melanoma, with SF-268 CNS, in the assay on HCT-15 colon and in the assay with SW-620 colon was over 100 µM throughout. Further, the TGI is over 100 µM in the assay on NCI-H23 lung; over 100 µM in the assay with HCC-2998 colon; over 100 µM with OVCAR-3 ovarian; over 100 µM with UACC-62 melanoma; 62 µM in the assay on HOP-92 NSCLC; over 100 µM with OVCAR-4 ovarian. The TGI in the assay with M14 melanoma, in the assay on CAKI-1 renal, in the assay on NCI-H226 lung, in the assay with HT29 colon and with EKVX NSCLC was over 100 µM throughout.
Turning to `CC(C)NC1CCCCC2c3cc(F)ccc3[C@]12O` (stereo not given in full), the TGI in the assay with SK-MEL-28 melanoma, in the assay with SF-539 CNS, with MALME-3M melanoma, in the assay on SF-268 CNS, with HCT-15 colon and in the assay on SW-620 colon was over 100 µM in each case. For the same compound, the TGI in the assay with NCI-H23 lung, in the assay with HCC-2998 colon, with OVCAR-3 ovarian, in the assay on UACC-62 melanoma, in the assay on SK-OV-3 ovarian and with OVCAR-4 ovarian was over 100 µM in each case. The TGI with M14 melanoma, in the assay with CAKI-1 renal, with NCI-H226 lung, with HT29 colon and in the assay with EKVX NSCLC was over 100 µM in each case.
For `CC(=O)OC1COC(n2c(O)c(N=Nc3ccc([N+](=O)[O-])cc3)c3cc(Br)c([N+](=O)[O-])cc32)C(OC(C)=O)C1OC(C)=O` (stereo not given), the TGI with SK-MEL-28 melanoma, with SF-539 CNS, with MALME-3M melanoma, with SF-268 CNS, in the assay on HCT-15 colon and with SW-620 colon was over 100 µM throughout. The TGI with NCI-H23 lung was over 100 µM; in the assay on HCC-2998 colon it was over 100 µM; in the assay on OVCAR-3 ovarian it was over 100 µM; in the assay on UACC-62 melanoma, 36.6 µM; in the assay with SK-OV-3 ovarian it was over 100 µM; with HOP-92 NSCLC, 78 µM. In addition, the TGI in the assay with OVCAR-4 ovarian, in the assay on M14 melanoma, in the assay with CAKI-1 renal, in the assay with NCI-H226 lung, in the assay with HT29 colon and in the assay on EKVX NSCLC was over 100 µM each time.
